Assay results published in a melting point compilation (Tetko et al.; mined from patent text by program, amines drawn as free bases though some values may be those of a salt).

melting point [°C]	Structure (SMILES)
70 to 73	Cc1cc(C)cc(C(=O)N2CCN(C(=O)CN(CCO)C3CCN(Cc4ccccc4)CC3)C(c3ccc(Cl)c(Cl)c3)C2)c1 (racemic)
162 to 164	CN(C)CC=Cc1ccc2c(c1)CCCN2C(=O)c1ccc(-c2ccc(Cl)cc2)cc1
104 to 108	CCc1nc2c(OCc3ccccc3)cc(C(=O)N(C)C)cc2n1C
266	CS(=O)c1cc(CCC(=O)O)nc(-c2nc(=O)c3ccccc3s2)c1 (stereo unspecified)
50 to 60	CN(C)C[C@@H]1NCCC[C@H]1O (relative stereo)
71.4 to 72.1	CCCCC1CCC(CC(=O)c2ccc(-c3ccc(CC(C)CC)cc3F)cc2)CC1 (single isomer, unassigned; (+))
157 to 160	CCc1ccc(N2CCN(c3c(C)c4c(c(OC)c3C)OC(C)(C)C4)CC2)cc1
> 300	O=C(O)c1cn(C2CC2)c2c(F)c(N3Cc4cccc(O)c4C3)c(F)cc2c1=O
188 to 189	CCn1c(-c2ccc(Cl)cc2)n[nH]c1=O
110 to 113	C[C@@H](n1cnc2c(Cl)cccc2c1=O)[C@](O)(Cn1cncn1)c1ccc(F)cc1F
92 to 98	CCCn1c(-c2ccc(-n3ccnc3)cc2)cnc1[C@H](Cc1ccccn1)N(C=O)c1cc2cc(C(F)(F)F)ccc2o1
83 to 84	CCOC(=O)C(c1ccc(CN2CCOCC2)cn1)c1cc(C#N)ccc1[N+](=O)[O-] (stereo unspecified)
228	Cc1cc2cc(CN3CCC(CCCC(N)=O)CC3)cnc2cc1NC(=O)c1ccc(-c2ccc(F)cc2)cc1
99 to 102	O=C(O)CC(Sc1ccccc1)c1ccc(Cl)cc1 (stereo unspecified)
57	CCCCCCCCCCCCNC=C1C(=O)ON=C1C
215 to 216	O=C(Nc1nccs1)C1=C(O)c2ccsc2S(=O)(=O)C1
124 to 126	CS(=O)(=O)c1ccc(C(CC2CCCC2)C(=O)Nc2nccs2)cc1NO (stereo unspecified)
125	CCOCC1=C(C(=O)OCC)C(c2cccc(C#N)c2)C(C(=O)OCC)=C(CC)N1 (stereo unspecified)

melting point [°C]	Structure (SMILES)
213 to 216	COc1ccc(CCN(C)C)c2[nH]c(=S)[nH]c12
110 to 112	COCN1C(C)=C(C(=O)OC)C(c2ccccc2C(F)(F)F)C(C(=O)OCOC(=O)C(C)(C)C)=C1C (single isomer, unassigned; (+))
239	Cn1ncc(N2CCCC2)c(-c2ccccc2C=NO)c1=O
286 to 288	O=C(Nc1ccc2[nH]c(=O)[nH]c2c1)C(=O)N1CCC(Oc2ccc(Cl)cc2)CC1
132 to 140	N#CC1CCC(c2ccc(N)cc2)CC1 (stereo unspecified)
155 to 160	O=C(Nc1cccc(F)c1F)c1ccc(-n2nc(C(F)(F)F)cc2C2CC2)nc1
153 to 155	N#CC(N=Nc1cc(S(=O)(=O)Cl)ccc1OC(=O)c1ccccc1)=C(OC(=O)c1ccccc1)c1ccccc1
192 to 193	CC(=O)NC[C@H]1CN(c2ccc(N3CC(=O)C3)c(F)c2)C(=O)O1
40 to 41	COC(=O)[C@@H](N=[N+]=[N-])[C@@H](O)c1ccccc1
137 to 141	Cc1ncsc1C(=O)Nc1ccc(-n2nc(C(F)(F)F)cc2C2CC2)cc1
185 to 186	CCN1CCN(c2nccc(Oc3ccc(NC(=O)c4cc(F)cc(N5CCOCC5)c4)c4ccccc34)n2)CC1
70.1	c1ccc(CNc2ccc3ccccc3c2-c2c(P(c3ccccc3)c3ccccc3)ccc3ccccc23)cc1
158 to 159	O=S(=O)(Nc1cc(Cl)cc(Cl)c1)c1cc(Br)ccc1O
119 to 121	CCOC(=O)c1ccc(NC(=O)C(CSC(C)=O)Cc2ccccc2)cc1 (stereo unspecified)
235 to 237	CCCC1Sc2nncn2N=C1c1ccc2c(c1)NC(=O)CO2 (stereo unspecified)
122 to 124	COc1ccc(C(=O)c2ccc3cc(OC)ccc3c2-c2ccccc2)cc1
86.1 to 88.3	O=C(O)CCc1ccc2c(c1)OCO2
68 to 71	CC(C)OC1CCC(=O)N1 (stereo unspecified)
